# Laboratory results as given in patent US20080132505A1 (Glaxo Group Limited, priority 2004, published 2008).
# Target: human cannabinoid CB2 receptor (Homo sapiens, UniProt P34972)
# Assay: Cannabinoid CB2 receptor agonist activity (yeast reporter assay, FDGlu fluorescence)
# Assay type: cell-based
# Conditions: for EC50: EC50 value at the cloned human cannabinoid CB2 receptor; for Emax: read-out: efficacy value (Emax relative to HU210) at the cloned human cannabinoid CB2 receptor
# Experimental: Determination of Cannabinoid CB2 Receptor Agonist Activity
# The cannabinoid CB2 receptor agonist activity of the compounds of formula (I)-(IV) was determined in accordance with the following experimental method.
# Yeast (Saccharomyces cerevisiae) cells expressing the human cannabinoid CB2 receptor were generated by integration of an expression cassette into the ura3 chromosomal locus of yeast strain MMY23. This cassette consisted of DNA sequence encoding the human CB2 receptor flanked by the yeast GPD promoter to the 5′ end of CB2 and a yeast transcriptional terminator sequence to the 3′ end of CB2. MMY23 expresses a yeast/mammalian chimeric G-protein alpha subunit in which the C-terminal 5 amino acids of Gpa1 are replaced with the C-terminal 5 amino acids of human Gαi3 (as described in Brown et al. (2000), Yeast 16:11-22). Cells were grown at 30° C. in liquid Synthetic Complete (SC) yeast media (Guthrie and Fink (1991), Methods in Enzymology, Vol. 194) lacking uracil, tryptophan, adenine and leucine to late logarithmic phase (approximately 6 OD600/ml).
# Agonists were prepared as 10 mM stocks in DMSO. […] Agonist solutions in DMSO (1% final assay volume) were transferred into black, clear bottom, microtitre plates from NUNC (96- or 384-well). Cells were suspended at a density of 0.2 OD600/ml in SC media lacking histidine, uracil, tryptophan, adenine and leucine and supplemented with 10 mM 3-aminotriazole, 0.1M sodium phosphate pH 7.0, and […] fluorescein di-β-D-glucopyranoside (FDGlu). This mixture (50 ul per well for 384-well plates, 200 ul per well for 96-well plates) was added to agonist in the assay plates (Multidrop 384, Labsystems). After incubation at 30° C. for 24 hours, fluorescence resulting from degradation of FDGlu to fluorescein due to exoglucanase, an endogenous yeast enzyme produced during agonist-stimulated cell growth, was determined using a Spectrofluor microtitre plate reader (Tecan; excitation wavelength: 485 nm; emission wavelength: 535 nm). Fluorescence was plotted against compound concentration and iteratively curve fitted using a four parameter fit to generate a concentration effect value. Efficacy (Emax) was calculated from the equation
# where Max[compound X] and Min[compound X] are the fitted maximum and minimum respectively from the concentration effect curve for compound X, and Max[HU210] and Min[HU210] are the fitted maximum and minimum respectively from the concentration effect curve for (6aR,10aR)-3-(1,1′-Dimethylheptyl)-6a,7,10,10a-tetrahydro-1-hydroxy-6,6-dimethyl-6H-dibenzo[b,d]pyran-9-methanol (HU210; available from Tocris). Equieffective molar ratio (EMR) values were calculated from the equation
# Where EC50 [compound X] is the EC50 of compound X and EC50 [HU210] is the EC50 of HU210.
# human cannabinoid CB2 receptor, sequence (P34972 whole entry): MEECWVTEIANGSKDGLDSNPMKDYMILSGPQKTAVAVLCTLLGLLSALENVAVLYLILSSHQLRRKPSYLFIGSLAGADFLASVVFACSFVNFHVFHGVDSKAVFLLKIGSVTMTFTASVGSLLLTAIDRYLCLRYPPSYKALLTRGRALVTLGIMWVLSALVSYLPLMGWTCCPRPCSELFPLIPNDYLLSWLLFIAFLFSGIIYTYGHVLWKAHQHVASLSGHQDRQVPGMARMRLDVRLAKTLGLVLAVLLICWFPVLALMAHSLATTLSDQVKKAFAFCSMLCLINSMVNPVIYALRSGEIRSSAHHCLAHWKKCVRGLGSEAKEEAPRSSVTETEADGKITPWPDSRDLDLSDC
structure (smiles),measurement,value
"COc1cccc(Nc2ncc(C(=O)NCC3CCOCC3)c(C(F)(F)F)n2)c1 [Example 37, 2-(3-Methoxyphenylamino)-4-trifluoromethylpyrimidine-5-carboxylic acid (tetrahydropyran-4-ylmethyl)-amide]",EC50,20 to 300 nM
same,Emax,> 50%
"O=C(c1cnc(Nc2cccc(Cl)c2)nc1C(F)(F)F)N1CCCCC1 [Example 1, 1-[2-(3-Chlorophenylamino)-4-trifluoromethylpyrimidin-5-yl]-1-piperidin-1-ylmethanone]",EC50,20 to 300 nM
same,Emax,> 50%
"CN(Cc1ccccc1)C(=O)c1cnc(Nc2cccc(Cl)c2)nc1C(F)(F)F [Example 268, 2-(3-Chlorophenylamino)-4-trifluoromethylpyrimidine-5-carboxylic acid N-benzyl-N-methylamide]",EC50,20 to 300 nM
"O=C(NCC1CCOCC1)c1cnc(Nc2ccc(Cl)cc2F)nc1C(F)(F)F [Example 99, 2-(2-Fluoro-4-chlorophenylamino)-4-trifluoromethyl-pyrimidine-5-carboxylic acid (tetrahydro-pyran-4-ylmethyl)-amide]",EC50,300 to 1000 nM
same,Emax,> 50%
"O=C(NC1CCC1)c1cnc(Nc2cc(Cl)ccc2Cl)nc1C(F)(F)F [Example 50, 2-(2,5-Dichlorophenylamino)-4-trifluoromethylpyrimidine-5-carboxylic acid cyclobutylamide]",EC50,20 to 300 nM
same,Emax,> 50%
"O=C(NCC1CCC1)c1cnc(Nc2cc(Cl)ccc2Cl)nc1C(F)(F)F [Example 202, 2-(2,5-Dichlorophenylamino)-4-trifluoromethyl-pyrimidine-5-carboxylic acid cyclobutylmethyl-amide]",EC50,20 to 300 nM
same,Emax,> 50%
"O=C(c1cnc(Nc2ccccc2)nc1C(F)(F)F)N1CCOCC1 [Example 25, 1-Morpholin-4-yl-1-(2-phenylamino-4-trifluoromethyl-pyrimidin-5-yl)-methanone]",EC50,300 to 1000 nM
same,Emax,> 50%
"N#Cc1ccc(CNC(=O)c2cnc(Nc3cc(Cl)cc(Cl)c3)nc2C(F)(F)F)cc1 [Example 291, 2-(3,5-Dichlorophenylamino)-4-trifluoromethylpyrimidine-5-carboxylic acid 4-cyanobenzylamide]",EC50,20 to 300 nM
"COc1ccccc1Nc1ncc(C(=O)NCc2ccccc2)c(C(F)(F)F)n1 [Example 280, 2-(2-Methoxyphenylamino)-4-trifluoromethylpyrimidine-5-carboxylic acid benzyl-amide]",EC50,20 to 300 nM
same,Emax,> 50%
"CC(C)Cc1ccc(CNC(=O)c2cnc(Nc3cccc(Cl)c3)nc2C(F)(F)F)cc1 [Example 302, 2-(3-Chloro-phenylamino)-4-trifluoromethyl-pyrimidine-5-carboxylic acid 4-isobutyl-benzylamide]",EC50,300 to 1000 nM
same,Emax,> 50%
"CN(Cc1ccccc1)C(=O)c1cnc(Nc2cccc(F)c2)nc1C(F)(F)F [Example 301, 2-(3-Fluoro-phenylamino)-4-trifluoromethyl-pyrimidine-5-carboxylic acid N-benzyl-N-methyl-amide]",EC50,300 to 1000 nM
same,Emax,> 50%
"O=C(c1cnc(Nc2cc(Cl)ccc2Cl)nc1C(F)(F)F)N1CCOCC1 [Example 9, 1-[2-(2,5-Dichlorophenylamino)-4-trifluoromethylpyrimidin-5-yl]-1-morpholin-4-yl-methanone]",EC50,20 to 300 nM
same,Emax,> 50%
"O=C(NCC1CCOCC1)c1cnc(Nc2cc(F)cc(F)c2)nc1C(F)(F)F [Example 214, 2-(3,5-Difluorophenylamino)-4-trifluoromethyl-pyrimidine-5-carboxylic acid (tetrahydro-pyran-4-ylmethyl)-amide]",EC50,20 to 300 nM
same,Emax,> 50%
"O=C(NC1CCCC1)c1cnc(Nc2cc(Cl)cc(Cl)c2)nc1C(F)(F)F [Example 75, 3,5-Dichlorophenylamino-4-trifluoromethyl-pyrimidine-5-carboxylic acid cyclopentylamide]",EC50,300 to 1000 nM
same,Emax,> 50%
"O=C(NCC1CCOCC1)c1cnc(Nc2cccc(C(F)(F)F)c2F)nc1C(F)(F)F [Example 181, 2-(2-Fluoro-3-(trifluoromethyl)phenylamino)-4-trifluoromethyl-pyrimidine-5-carboxylic acid (tetrahydropyran-4-ylmethyl)-amide]",EC50,20 to 300 nM
same,Emax,> 50%
"CC(C)(C)CNC(=O)c1cnc(Nc2cccc(Cl)c2)nc1C(F)(F)F [Example 28, 2-(3-Chloro-phenylamino)-4-trifluoromethyl-pyrimidine-5-carboxylic acid (2,2-dimethyl-propyl)-amide]",EC50,300 to 1000 nM
same,Emax,> 50%
"O=C(NCc1ccccc1)c1cnc(Nc2ccc(Cl)c(Cl)c2)nc1C(F)(F)F [Example 274, 2-(3,4-Dichlorophenylamino)-4-trifluoromethylpyrimidine-5-carboxylic acid benzyl-amide]",EC50,20 to 300 nM
"O=C(c1cnc(Nc2cccc(Cl)c2)nc1C(F)(F)F)N1CCOCC1 [Example 3, 1-[2-(3-Chlorophenylamino)-4-trifluoromethylpyrimidin-5-yl]-1-morpholin-4-yl-methanone]",EC50,20 to 300 nM
same,Emax,> 50%
"O=C(NCc1ccc(F)cc1)c1cnc(Nc2cccc(Cl)c2Cl)nc1C(F)(F)F [Example 364, 2-(2,3-Dichloro-phenylamino)-4-trifluoromethyl-pyrimidine-5-carboxylic acid 4-fluoro-benzylamide]",EC50,20 to 300 nM
"CN(Cc1ccccc1)C(=O)c1cnc(Nc2c(Cl)cccc2Cl)nc1C(F)(F)F [Example 275, 2-(2,6-Dichlorophenylamino)-4-trifluoromethylpyrimidine-5-carboxylic acid N-benzyl-N-methylamide]",EC50,20 to 300 nM
"O=C(NCC1CCC1)c1cnc(Nc2ccc(Br)cc2F)nc1C(F)(F)F [Example 229, 2-(2-Fluoro-4-bromo-phenylamino)-4-trifluoromethyl-pyrimidine-5-carboxylic acid cyclobutylmethyl-amide]",EC50,20 to 300 nM
same,Emax,> 50%
"O=C(NCc1ccnc(F)c1)c1cnc(Nc2cccc(Cl)c2)nc1C(F)(F)F [Example 294, 2-(3-Chloro-phenylamino)-4-trifluoromethyl-pyrimidine-5-carboxylic acid (2-fluoro-pyridin-4-ylmethyl)-amide]",EC50,20 to 300 nM
"O=C(NC1CCC1)c1cnc(Nc2cc(Cl)cc(Cl)c2)nc1C(F)(F)F [Example 52, 2-(3,5-Dichlorophenylamino)-4-trifluoromethylpyrimidine-5-carboxylic acid cyclobutylamide]",EC50,20 to 300 nM
same,Emax,> 50%
"O=C(NCc1ccnc(F)c1)c1cnc(Nc2ccc(Cl)c(Cl)c2)nc1C(F)(F)F [Example 357, 2-(3,4-Dichloro-phenylamino)-4-trifluoromethyl-pyrimidine-5-carboxylic acid (2-fluoro-pyridin-4-ylmethyl)-amide]",EC50,20 to 300 nM
"O=C(NCc1ccncc1)c1cnc(Nc2cccc(Br)c2)nc1C(F)(F)F [Example 286, 2-(3-Bromophenylamino)-4-trifluoromethylpyrimidine-5-carboxylic acid (pyridin-4-ylmethyl)amide]",EC50,20 to 300 nM
"Cc1cc(CNC(=O)c2cnc(Nc3cccc(Cl)c3)nc2C(F)(F)F)ccn1 [Example 303, 2-(3-Chloro-phenylamino)-4-trifluoromethyl-pyrimidine-5-carboxylic acid (2-methyl-pyridin-4-ylmethyl)-amide]",EC50,300 to 1000 nM
"CC(C)c1cc(Nc2cccc(OC(F)(F)F)c2)ncc1C(=O)NCC1CCC1 [Example 682, N-Cyclobutylmethyl-4 isopropyl-6-(3-trifluoromethoxy-phenylamino)-nicotinamide]",Emax,> 50%
"Cc1cc(Cl)ccc1Nc1ncc(C(=O)NCC2CCCCC2)c(C(F)(F)F)n1 [Example 94, 2-(4-Chloro-2-methyl-phenylamino)-4-trifluoromethyl-pyrimidine-5-carboxylic acid cyclohexylmethyl-amide]",EC50,300 to 1000 nM
same,Emax,> 50%
"Cc1ccc(Cl)cc1Nc1ncc(C(=O)NCC2CCCCC2)c(C(F)(F)F)n1 [Example 246, 2-(5-Chloro-2-methylphenylamino)-4-trifluoromethyl-pyrimidine-5-carboxylic acid cyclohexylmethyl-amide]",EC50,20 to 300 nM
same,Emax,> 50%
"CN(Cc1ccccc1)C(=O)c1cnc(Nc2ccccc2Cl)nc1C(F)(F)F [Example 305, 2-(2-Chloro-phenylamino)-4-trifluoromethyl-pyrimidine-5-carboxylic acid N-benzyl-N-methyl-amide]",EC50,300 to 1000 nM
